Assay results published in ChEMBL document CHEMBL1201862, “PubChem BioAssay data set” (2004).
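Tested at 5 concentrations; 48 h exposure; 96-well plates; endpoints linearly interpolated, else capped at highest concentration. The concentration for 50% growth inhibition is given as GI50.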 Activity calls are given as the source filed them. Cut-off read from the data, not from the text of the source: active = GI50 up to about 1.1 µM and inactive = higher.

How the values were obtained:
Experiment in all cases: growth of human tumour cells (NCI), 48 h
[1] = system: SK-MEL-5
[2] = system: KM12
[3] = system: SK-MEL-2
[4] = system: SF-268
[5] = system: HCT-116
[6] = system: TK-10
[7] = system: MDA-MB-435
[8] = system: LOX IMVI
[9] = system: SNB-75
[10] = system: SF-539
[11] = system: A498
[12] = system: OVCAR-8
[13] = system: DU-145
[14] = system: UACC-257
[15] = system: SK-OV-3
[16] = system: MCF7
[17] = system: Hs-578T
[18] = system: SR
[19] = system: CAKI-1
[20] = system: HOP-92

SMILES	GI50 [1]	GI50 [2]	GI50 [3]	GI50 [4]	GI50 [5]	GI50 [6]	GI50 [7]	GI50 [8]	GI50 [9]	GI50 [10]	GI50 [11]	GI50 [12]	GI50 [13]	GI50 [14]	GI50 [15]	GI50 [16]	GI50 [17]	GI50 [18]	GI50 [19]	GI50 [20]
NC(N)=NCCC[C@H](N)C(=O)NCC(=O)N[C@@H](CC(=O)O)c1ncc(NC(=O)C(F)(F)F)o1	> 25 µM (inactive)	> 25 µM (inactive)	> 25 µM (inactive)	> 25 µM (inactive)	> 25 µM (inactive)	> 25 µM (inactive)	> 25 µM (inactive)	> 25 µM (inactive)	> 25 µM (inactive)	> 25 µM (inactive)	> 25 µM (inactive)	> 25 µM (inactive)	> 25 µM (inactive)	> 25 µM (inactive)	> 25 µM (inactive)	> 25 µM (inactive)	> 25 µM (inactive)	–	–	–
Clc1ccc(OCc2nnc3sc(-c4ccc(-c5ccc(Cl)cc5Cl)o4)nn23)cc1	> 100 µM (inactive)	> 100 µM (inactive)	50.6 µM (inactive)	> 100 µM (inactive)	> 100 µM (inactive)	> 100 µM (inactive)	> 100 µM (inactive)	> 100 µM (inactive)	7.85 µM (inactive)	–	> 100 µM (inactive)	> 100 µM (inactive)	> 100 µM (inactive)	> 100 µM (inactive)	> 100 µM (inactive)	–	> 100 µM (inactive)	> 100 µM (inactive)	> 100 µM (inactive)	36.9 µM (inactive)
C=C(C)C12OC3(c4ccccc4)OC1C1C4OC4(CO)C(O)C4(O)C(=O)C(C)=CC4C1(O3)C(C)C2OC(=O)/C=C/C=C/c1ccccc1 (stereo not given)	0.0716 µM (active)	0.156 µM (active)	0.337 µM (active)	0.247 µM (active)	0.228 µM (active)	< 0.0005 µM (active)	< 0.0005 µM (active)	0.0968 µM (active)	0.132 µM (active)	0.372 µM (active)	< 0.0005 µM (active)	0.357 µM (active)	0.215 µM (active)	0.453 µM (active)	1.15 µM (inactive)	0.222 µM (active)	–	0.122 µM (active)	0.504 µM (active)	< 0.0005 µM (active)
CNC(=O)OC1/C(C)=C\C(C)C(O)C(OC)CC(C)CC2=C(OC)C(=O)C=C(C2=O)N(C)C(=O)/C(C)=C/C=C\C1OC (stereo not given)	7.64 µM (inactive)	10.4 µM (inactive)	8.85 µM (inactive)	9.73 µM (inactive)	8.05 µM (inactive)	7.64 µM (inactive)	–	4.68 µM (inactive)	14.2 µM (inactive)	8.32 µM (inactive)	18.5 µM (inactive)	7.38 µM (inactive)	9.64 µM (inactive)	5.02 µM (inactive)	10.2 µM (inactive)	–	4.03 µM (inactive)	–	7.4 µM (inactive)	2.8 µM (inactive)
Nc1ccc(S(=O)(=O)NCCS(=O)(=O)O)cc1	> 100 µM (inactive)	> 100 µM (inactive)	> 100 µM (inactive)	> 100 µM (inactive)	> 100 µM (inactive)	> 100 µM (inactive)	> 100 µM (inactive)	> 100 µM (inactive)	> 100 µM (inactive)	–	> 100 µM (inactive)	> 100 µM (inactive)	> 100 µM (inactive)	> 100 µM (inactive)	–	–	> 100 µM (inactive)	> 100 µM (inactive)	> 100 µM (inactive)	> 100 µM (inactive)
COc1ccc(/C=N/Nc2nc3ccccc3c(=O)n2-c2ccccc2)c(OCc2ccccc2)c1	> 100 µM (inactive)	> 100 µM (inactive)	0.0656 µM (active)	> 100 µM (inactive)	> 100 µM (inactive)	> 100 µM (inactive)	> 100 µM (inactive)	> 100 µM (inactive)	–	14.5 µM (inactive)	> 100 µM (inactive)	> 100 µM (inactive)	> 100 µM (inactive)	> 100 µM (inactive)	> 100 µM (inactive)	0.226 µM (active)	–	> 100 µM (inactive)	34.8 µM (inactive)	19.3 µM (inactive)
Cn1c2ccccc2c(=O)c2cccc(C(=O)NC(CCCNC(=N)N)C(=O)O)c21 (stereo not given)	> 100 µM (inactive)	> 100 µM (inactive)	> 100 µM (inactive)	> 100 µM (inactive)	> 100 µM (inactive)	> 100 µM (inactive)	> 100 µM (inactive)	> 100 µM (inactive)	> 100 µM (inactive)	> 100 µM (inactive)	–	> 100 µM (inactive)	> 100 µM (inactive)	> 100 µM (inactive)	> 100 µM (inactive)	> 100 µM (inactive)	> 100 µM (inactive)	–	–	–
C[C@@]1(Br)C[C@@](C)(Cl)[C@@H](Br)CC1/C=C/Cl (stereo not given in full)	13.6 µM (inactive)	16.1 µM (inactive)	16.7 µM (inactive)	11.1 µM (inactive)	11 µM (inactive)	18.4 µM (inactive)	16.9 µM (inactive)	17.6 µM (inactive)	12.8 µM (inactive)	15.2 µM (inactive)	–	16 µM (inactive)	–	17.9 µM (inactive)	17.5 µM (inactive)	16.6 µM (inactive)	16.7 µM (inactive)	14.1 µM (inactive)	–	–
Nc1ccc(COC(O)CN2CCCCC2)cc1[N+](=O)[O-] (stereo not given)	> 100 µM (inactive)	> 100 µM (inactive)	> 100 µM (inactive)	> 100 µM (inactive)	> 100 µM (inactive)	> 100 µM (inactive)	> 100 µM (inactive)	–	70.5 µM (inactive)	> 100 µM (inactive)	> 100 µM (inactive)	> 100 µM (inactive)	> 100 µM (inactive)	> 100 µM (inactive)	–	> 100 µM (inactive)	–	> 100 µM (inactive)	> 100 µM (inactive)	> 100 µM (inactive)
O=C1/C(=C/c2ccc(O)c([N+](=O)[O-])c2)CCC/C1=C\c1ccc(O)c([N+](=O)[O-])c1	9.27 µM (inactive)	9.4 µM (inactive)	11.4 µM (inactive)	4.28 µM (inactive)	8.45 µM (inactive)	23.2 µM (inactive)	9.53 µM (inactive)	9.89 µM (inactive)	1.61 µM (inactive)	19.3 µM (inactive)	6.55 µM (inactive)	18.5 µM (inactive)	9.77 µM (inactive)	10.5 µM (inactive)	26 µM (inactive)	12.3 µM (inactive)	4.48 µM (inactive)	–	11.5 µM (inactive)	–
C=C1CC[C@@H](C)[C@](C)(CCc2ccoc2)C/C=C\C=C/1C(=O)O	39.6 µM (inactive)	33.1 µM (inactive)	19.1 µM (inactive)	–	21.8 µM (inactive)	> 100 µM (inactive)	37.6 µM (inactive)	21.1 µM (inactive)	80 µM (inactive)	19.6 µM (inactive)	58.6 µM (inactive)	21 µM (inactive)	–	53 µM (inactive)	69.2 µM (inactive)	33.3 µM (inactive)	71 µM (inactive)	23 µM (inactive)	31.6 µM (inactive)	62.2 µM (inactive)
COc1cc(C(=O)n2c3ccc(Br)cc3c3nc4ccccc4nc32)cc(OC)c1OC	> 100 µM (inactive)	> 100 µM (inactive)	62.8 µM (inactive)	60.5 µM (inactive)	> 100 µM (inactive)	32.7 µM (inactive)	> 100 µM (inactive)	> 100 µM (inactive)	26.2 µM (inactive)	23.8 µM (inactive)	–	> 100 µM (inactive)	> 100 µM (inactive)	> 100 µM (inactive)	–	> 100 µM (inactive)	–	> 100 µM (inactive)	> 100 µM (inactive)	54.5 µM (inactive)
Cn1c2ccc3cc2c(=S)c2cc(ccc21)OCCOCCOCCOCCOCCOCCO3	> 10 µM (inactive)	> 10 µM (inactive)	> 10 µM (inactive)	> 10 µM (inactive)	> 10 µM (inactive)	> 10 µM (inactive)	–	> 10 µM (inactive)	> 10 µM (inactive)	> 10 µM (inactive)	> 10 µM (inactive)	> 10 µM (inactive)	> 10 µM (inactive)	> 10 µM (inactive)	> 10 µM (inactive)	> 10 µM (inactive)	> 10 µM (inactive)	> 10 µM (inactive)	> 10 µM (inactive)	> 10 µM (inactive)
CO/C(N)=C(C#N)/N=C/c1ccco1	> 100 µM (inactive)	> 100 µM (inactive)	> 100 µM (inactive)	> 100 µM (inactive)	> 100 µM (inactive)	> 100 µM (inactive)	> 100 µM (inactive)	> 100 µM (inactive)	> 100 µM (inactive)	–	> 100 µM (inactive)	> 100 µM (inactive)	> 100 µM (inactive)	> 100 µM (inactive)	> 100 µM (inactive)	> 100 µM (inactive)	> 100 µM (inactive)	–	> 100 µM (inactive)	> 100 µM (inactive)
Cc1nc(Cl)nc(Cl)c1C	> 100 µM (inactive)	> 100 µM (inactive)	> 100 µM (inactive)	> 100 µM (inactive)	–	> 100 µM (inactive)	> 100 µM (inactive)	> 100 µM (inactive)	> 100 µM (inactive)	> 100 µM (inactive)	–	> 100 µM (inactive)	–	> 100 µM (inactive)	> 100 µM (inactive)	> 100 µM (inactive)	> 100 µM (inactive)	> 100 µM (inactive)	–	–
